Test results published in patent US20230116114A1, “COMPOUNDS AND COMPOSITIONS FOR TREATING CNS DISORDERS” (Blue Oak Pharmaceuticals, Inc., priority 2020, published 2023).
Structures can show the parent of a compound that is named as a salt.

System: mice
Experiment: SmartCube in vivo neuropharmacological behavioral assay
Settings: for minimal effective dose: Mus musculus, ip, 0.25 h, dose having 50% or more total activity in SmartCube, i.p., read-out: MED (minimal effective dose); for AD: antidepressant (percent probability) / AG: analgesic (percent probability) / AP: antipsychotic (percent probability) / AX: anxiolytic (percent probability) / CE: cognitive enhancer (percent probability) / HA: hallucinogenic (percent probability) / MS: mood stabilizer (percent probability) / PS (percent probability) / SD: sedative hypnotic (percent probability) / SE: side effects (percent probability) / UN: uncharacterized CNS activity (percent probability) / XG: anxiogenic (percent probability): SmartCube, i.p. 15 min before test, result at the MED
Method in brief: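 Mice dosed i.p. in NMP (Pharmasolve) 15 min before automated video behavioral testing at several doses (e.g., 0.3-30 mpk). Signatures compared to reference drug classes giving per-class probabilities (0-100); MED is the lowest dose with ≥50% total activity.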

Row | Compound | minimal effective dose | AD: antidepressant (percent probability) | AG: analgesic (percent probability) | AP: antipsychotic (percent probability) | AX: anxiolytic (percent probability) | CE: cognitive enhancer (percent probability) | HA: hallucinogenic (percent probability) | MS: mood stabilizer (percent probability) | PS (percent probability) | SD: sedative hypnotic (percent probability) | SE: side effects (percent probability) | UN: uncharacterized CNS activity (percent probability) | XG: anxiogenic (percent probability)
1 | c1ccc2c(c1)C1CCCC2N1C1CCOC1 (centres unmarked) [Compound 9, 12-(Oxolan-3-yl)-12-azatricyclo[6.3.1.0^2,7]dodeca-2,4,6-triene hydrochloride] | 10 to 30 mg/kg | +++ (25% ≤ X < 50%) | ++ (5% ≤ X < 25%) | + (LOQ ≤ X < 5%) | ++ (5% ≤ X < 25%) | + (LOQ ≤ X < 5%) | + (LOQ ≤ X < 5%) | + (LOQ ≤ X < 5%) | + (LOQ ≤ X < 5%) | + (LOQ ≤ X < 5%) | + (LOQ ≤ X < 5%) | ++ (5% ≤ X < 25%) | ++ (5% ≤ X < 25%)
2 | CC([C@@H](C)F)N1C2CCCC1c1ccccc12 (stereo in doubt) [Compound 23, 12-(3-Fluorobutan-2-yl)-12-azatricyclo[6.3.1.0^2,7]dodeca-2,4,6-triene hydrochloride] | > 30 mg/kg | + (LOQ ≤ X < 5%) | + (LOQ ≤ X < 5%) | + (LOQ ≤ X < 5%) | + (LOQ ≤ X < 5%) | + (LOQ ≤ X < 5%) | + (LOQ ≤ X < 5%) | + (LOQ ≤ X < 5%) | + (LOQ ≤ X < 5%) | + (LOQ ≤ X < 5%) | + (LOQ ≤ X < 5%) | ++ (5% ≤ X < 25%) | + (LOQ ≤ X < 5%)
3 | CC(C)C(C)N1C2CCCC1c1ccccc12 (centres unmarked) [Compound 22, 12-(3-Methylbutan-2-yl)-12-azatricyclo[6.3.1.0^2,7]dodeca-2,4,6-triene hydrochloride] | 1 to 10 mg/kg | ++ (5% ≤ X < 25%) | + (LOQ ≤ X < 5%) | + (LOQ ≤ X < 5%) | + (LOQ ≤ X < 5%) | + (LOQ ≤ X < 5%) | + (LOQ ≤ X < 5%) | + (LOQ ≤ X < 5%) | + (LOQ ≤ X < 5%) | + (LOQ ≤ X < 5%) | + (LOQ ≤ X < 5%) | ++++ (50% ≤ X < 100%) | + (LOQ ≤ X < 5%)
4 | CC[C@@H](C)N1C2CCCC1c1ccccc12 [Compound 25, 12-[(2R)-Butan-2-yl]-12-azatricyclo[6.3.1.0^2,7]dodeca-2,4,6-triene hydrochloride] | 1 to 10 mg/kg | ++++ (50% ≤ X < 100%) | + (LOQ ≤ X < 5%) | + (LOQ ≤ X < 5%) | + (LOQ ≤ X < 5%) | + (LOQ ≤ X < 5%) | + (LOQ ≤ X < 5%) | + (LOQ ≤ X < 5%) | ++ (5% ≤ X < 25%) | + (LOQ ≤ X < 5%) | + (LOQ ≤ X < 5%) | + (LOQ ≤ X < 5%) | + (LOQ ≤ X < 5%)
5 | CCCC(C)N1C2CCCC1c1ccccc12 (centres unmarked) [Compound 16, 12-(Pentan-2-yl)-12-azatricyclo[6.3.1.0^20.7]dodeca-2,4,6-triene hydrochloride] | 10 to 30 mg/kg | +++ (25% ≤ X < 50%) | ++ (5% ≤ X < 25%) | + (LOQ ≤ X < 5%) | ++ (5% ≤ X < 25%) | + (LOQ ≤ X < 5%) | ++ (5% ≤ X < 25%) | + (LOQ ≤ X < 5%) | + (LOQ ≤ X < 5%) | + (LOQ ≤ X < 5%) | + (LOQ ≤ X < 5%) | ++ (5% ≤ X < 25%) | + (LOQ ≤ X < 5%)
6 | C[C@H]1CC[C@@H]2N[C@H]1c1ccccc12 (stereo in doubt) [Compound 32, 9-Methyl-12-azatricyclo[6.3.1.0^2,7]dodeca-2,4,6-triene hydrochloride] | 10 to 30 mg/kg | + (LOQ ≤ X < 5%) | + (LOQ ≤ X < 5%) | + (LOQ ≤ X < 5%) | + (LOQ ≤ X < 5%) | + (LOQ ≤ X < 5%) | ++++ (50% ≤ X < 100%) | + (LOQ ≤ X < 5%) | ++ (5% ≤ X < 25%) | + (LOQ ≤ X < 5%) | + (LOQ ≤ X < 5%) | + (LOQ ≤ X < 5%) | + (LOQ ≤ X < 5%)
7 | c1ccc2c(c1)C1CCCC2N1C1CCC1 [Compound 10, 12-Cyclobutyl-12-azatricyclo[6.3.1.0^2,7]dodeca-2,4,6-triene hydrochloride] | 1 to 10 mg/kg | ++++ (50% ≤ X < 100%) | ++ (5% ≤ X < 25%) | + (LOQ ≤ X < 5%) | ++ (5% ≤ X < 25%) | + (LOQ ≤ X < 5%) | ++ (5% ≤ X < 25%) | + (LOQ ≤ X < 5%) | ++ (5% ≤ X < 25%) | + (LOQ ≤ X < 5%) | + (LOQ ≤ X < 5%) | + (LOQ ≤ X < 5%) | + (LOQ ≤ X < 5%)
8 | CCC(C)N1C2CC(C)CC1c1ccccc12 (centres unmarked) [Compound 37, 12-(Butan-2-yl)-10-methyl-12-azatricyclo[6.3.1.0^2,7]dodeca-2,4,6-triene hydrochloride] | 1 to 10 mg/kg | ++ (5% ≤ X < 25%) | ++ (5% ≤ X < 25%) | + (LOQ ≤ X < 5%) | +++ (25% ≤ X < 50%) | + (LOQ ≤ X < 5%) | + (LOQ ≤ X < 5%) | + (LOQ ≤ X < 5%) | ++ (5% ≤ X < 25%) | + (LOQ ≤ X < 5%) | + (LOQ ≤ X < 5%) | + (LOQ ≤ X < 5%) | + (LOQ ≤ X < 5%)
9 | CC(C)N1C2CCC(F)C1c1ccccc12 (centres unmarked) [Compound 35, 9-Fluoro-12-(propan-2-yl)-12-azatricyclo[6.3.1.0^2,7]dodeca-2,4,6-triene hydrochloride] | > 30 mg/kg | + (LOQ ≤ X < 5%) | ++ (5% ≤ X < 25%) | + (LOQ ≤ X < 5%) | ++ (5% ≤ X < 25%) | + (LOQ ≤ X < 5%) | + (LOQ ≤ X < 5%) | + (LOQ ≤ X < 5%) | + (LOQ ≤ X < 5%) | + (LOQ ≤ X < 5%) | + (LOQ ≤ X < 5%) | + (LOQ ≤ X < 5%) | + (LOQ ≤ X < 5%)
10 | CC(C)N1C2CCC(=O)C1c1ccccc12 (centres unmarked) [Compound 39, hydrochloride] | > 30 mg/kg | + (LOQ ≤ X < 5%) | + (LOQ ≤ X < 5%) | + (LOQ ≤ X < 5%) | + (LOQ ≤ X < 5%) | + (LOQ ≤ X < 5%) | + (LOQ ≤ X < 5%) | + (LOQ ≤ X < 5%) | + (LOQ ≤ X < 5%) | + (LOQ ≤ X < 5%) | + (LOQ ≤ X < 5%) | + (LOQ ≤ X < 5%) | + (LOQ ≤ X < 5%)
11 | CC([C@H](C)F)N1C2CCCC1c1ccccc12 (stereo in doubt) [Compound 24, 12-(3-Fluorobutan-2-yl)-12-azatricyclo[6.3.1.0^2,7]dodeca-2,4,6-triene hydrochloride] | 10 to 30 mg/kg | +++ (25% ≤ X < 50%) | + (LOQ ≤ X < 5%) | + (LOQ ≤ X < 5%) | + (LOQ ≤ X < 5%) | + (LOQ ≤ X < 5%) | + (LOQ ≤ X < 5%) | + (LOQ ≤ X < 5%) | ++ (5% ≤ X < 25%) | + (LOQ ≤ X < 5%) | + (LOQ ≤ X < 5%) | + (LOQ ≤ X < 5%) | + (LOQ ≤ X < 5%)
